- melting point: 160 to 162 °C
SMILES: O=C(Nc1cc(Oc2cccnc2)cc(-c2ccccn2)c1)c1ccc(F)cc1 [Example 2, 4-Fluoro-N-[3-pyridin-2-yl-5-(pyridin-3-yloxy)-phenyl]-benzamide]

From patent US7605164B2, “Compositions and methods for treating heart failure” (Cytokinetics, Inc., priority 2001, dated 2009)
